pKi: −log10 of the molar value. Several values for one entry are separate records, joined by “and”; a condition that tells them apart may be missing. Identical values can stand only once.
Target: T1, H3 receptors (Cavia porcellus, UniProt Q9JI35)
T1 construct: The source of the H3 receptors in this experiment was guinea pig brain; from tissue; host or cells: guinea pig brain membranes
Experiment: H3-Receptor Binding Assay
Conditions: guinea pig brain membranes; 3 nM [3H]R-α-methyl histamine or 3 nM [3H]N-methyl histamine; 30° C. for 30 min
Experimental: General Procedure for H3-Receptor Binding Assay
The source of the H3 receptors in this experiment was guinea pig brain. The animals weighed 400–600 g. The brain tissue was homogenized with a solution of 50 mM Tris, pH 7.5. The final concentration of tissue in the homogenization buffer was 10% w/v. The homogenates were centrifuged at 1,000×g for 10 min. in order to remove clumps of tissue and debris. The resulting supernatants were then centrifuged at 50,000×g for 20 min. in order to sediment the membranes, which were next washed three times in homogenization buffer (50,000×g for 20 min. each). The membranes were frozen and stored at −70° C. until needed.
All compounds to be tested were dissolved in DMSO and then diluted into the binding buffer (50 mM Tris, pH 7.5) such that the final concentration was 2 μg/ml with 0.1% DMSO. Membranes were then added (400 μg of protein) to the reaction tubes. The reaction was started by the addition of 3 nM[^3H]R-α-methyl histamine (8.8 Ci/mmol) or 3 nM [^3H]N[…] -methyl histamine (80 Ci/mmol) and continued under incubation at 30° C. for 30 min. Bound ligand was separated from unbound ligand by filtration, and the amount of radioactive ligand bound to the membranes was quantitated by liquid scintillation spectrometry.

T1 sequence (Q9JI35 whole entry): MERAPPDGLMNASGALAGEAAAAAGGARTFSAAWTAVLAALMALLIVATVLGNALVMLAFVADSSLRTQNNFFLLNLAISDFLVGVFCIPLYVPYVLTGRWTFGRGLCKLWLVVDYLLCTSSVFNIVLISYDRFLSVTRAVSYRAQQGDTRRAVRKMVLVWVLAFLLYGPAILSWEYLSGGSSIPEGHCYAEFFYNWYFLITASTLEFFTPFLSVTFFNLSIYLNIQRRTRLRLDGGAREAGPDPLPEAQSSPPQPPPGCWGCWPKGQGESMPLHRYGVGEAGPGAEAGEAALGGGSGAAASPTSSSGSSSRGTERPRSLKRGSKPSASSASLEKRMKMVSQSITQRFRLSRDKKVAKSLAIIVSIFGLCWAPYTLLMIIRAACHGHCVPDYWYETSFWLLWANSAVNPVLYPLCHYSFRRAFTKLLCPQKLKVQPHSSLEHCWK

pKi	SMILES
7.46 to 9.70 and 7.66 to 8.70	Nc1cc(CN2CCC(C(=O)N3CCN(S(=O)(=O)c4ccccc4Cl)CC3)CC2)ccn1 [Compound 374]
7.46 to 9.70	Nc1cc(CN2CCC(C(=O)N3CCN(Cc4cccc(Cl)c4S(=O)(=O)N4CCOCC4)CC3)CC2)ccn1 [Compound 317]
7.46 to 9.70 and 7.66 to 8.70	Nc1cc(CN2CCC(C(=O)N3CCN(S(=O)(=O)c4ccc(Cl)cc4)CC3)CC2)ccn1 [Compound 366]
7.46 to 9.70 and 7.66 to 8.70	Nc1cc(CN2CCC(C(=O)N3CCN(Cc4c(F)cccc4Cl)CC3)CC2)ccn1 [Compound 336]
7.46 to 9.70	CN(C)S(=O)(=O)N1CCN(C(=O)C2CCN(Cc3ccnc(N)c3)CC2)CC1 [Compound 367]
7.46 to 9.70	Nc1cc(CN2CCC(C(=O)N3CCN(S(=O)(=O)c4cc(Cl)cc(Cl)c4)CC3)CC2)ccn1 [Compound 376]
7.46 to 9.70 and 7.66 to 8.70	CN(C)S(=O)(=O)c1cc(F)ccc1CN1CCN(C(=O)C2CCN(Cc3ccnc(N)c3)CC2)CC1 [Compound 332]

Further lines, the compound ahead of its results:

SMILES	pKi
Cc1noc(C)c1CN1CCN(C(=O)C2CCN(Cc3ccnc(N)c3)CC2)CC1 [Compound 331]	7.46 to 9.70
O=C(NCCc1ccccc1)c1cccc(CN2CCN(C(=O)C3CCN(Cc4ccncc4)CC3)CC2)c1 [Compound 276]	7.46 to 9.70
CN(c1ccc(Cl)cc1)S(=O)(=O)c1cc(F)ccc1CN1CCN(C(=O)C2CCN(Cc3ccnc(N)c3)CC2)CC1 [Compound 343]	7.46 to 9.70
O=C(C1CCN(Cc2ccncc2)CC1)N1CCN(Cc2ccccc2Br)CC1 [Compound 93]	7.46 to 9.70
Nc1cc(CN2CCC(C(=O)N3CCN(Cc4cc(F)ccc4Br)CC3)CC2)ccn1 [Compound 328]	7.46 to 9.70
Nc1cc(CN2CCC(C(=O)N3CCN(Cc4c(F)ccc(F)c4F)CC3)CC2)ccn1 [Compound 306]	7.46 to 9.70 and 7.66 to 8.70
Nc1cc(CN2CCC(C(=O)N3CCN(Cc4cc(-c5ccc(Cl)cc5)on4)CC3)CC2)ccn1 [Compound 333]	7.46 to 9.70 and 7.66 to 8.70
